Test results from patent US11040028B2, “Penicinotam derivative, preparation method and use thereof” (OCEAN UNIVERSITY OF CHINA, priority 2017, dated 2021).

What was measured:
Format in all cases: cell-based
[1] = tested on: BHK-21 cells; experiment: Anti-fibrosis activity test: inhibition of BHK-21 cell proliferation (CCK-8); settings: Mesocricetus auratus, BHK-21, 48 h
Summary of the method: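 Read-out: CCK-8 absorbance at 450 nm after 2 h, giving proliferation inhibition (1−Ai/Ao)×100% versus blank control, from which IC50 was derived. Cells had been treated with compounds for 48 h after 24 h adherence at 37° C. Pirfenidone served as positive control.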

[2] = tested on: human lung fibroblasts HFL1; experiment: Anti-fibrosis activity test: inhibition of proliferation of human lung fibroblasts HFL1 (CCK-8); settings: Homo sapiens, HFL1, 48 h
Summary of the method: (§1)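 After one day of adherence at 37° C in 5% CO2, cells (seeded at 2×10^4 cells/mL) received the compounds for two days in triplicate. Inhibition of proliferation was quantified with CCK-8 at 450 nm, with IC50 calculated from IR = (1−Ai/Ao)×100%.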

[3] = tested on: human hepatic stellate cells LX-2; experiment: Anti-fibrosis activity test: inhibition of proliferation of human hepatic stellate cells LX-2 (CCK-8); settings: Homo sapiens, 48 h
Summary of the method: as §1

[4] = tested on: human fibrosarcoma cells HT-1080; experiment: Anti-fibrosis activity test: inhibition of proliferation of human fibrosarcoma cells HT-1080 (CCK-8); settings: Homo sapiens, HT-1080, 48 h
Summary of the method: as §1

[5] = tested on: human dermal fibroblasts CCC-ESF-1; experiment: Anti-fibrosis activity test: inhibition of proliferation of human dermal fibroblasts CCC-ESF-1 (CCK-8); settings: Fibroblast
Summary of the method: as §1

[6] = tested on: human embryonic lung fibroblast IMR-90; experiment: Anti-fibrosis activity test: inhibition of proliferation of human embryonic lung fibroblast IMR-90 (CCK-8)
Summary of the method: as §1

[7] = tested on: cardiac fibroblast RAT-iCell-C002; experiment: Anti-fibrosis activity test: inhibition of proliferation of cardiac fibroblast RAT-iCell-C002 (CCK-8); settings: Cardiac fibroblast, 48 h
Summary of the method: as §1

[8] = tested on: mouse macrophages (RAW264.7); experiment: Lipopolysaccharide-induced NO secretion in macrophages (Griess); settings: Mus musculus, RAW264.7, 24 h, RAW264.7, LPS 1 μg/ml, a/b isomers given as first/second symbol, read-out: IC50 (μM), inhibition of lipopolysaccharide-induced NO secretion in macrophages
Summary of the method: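 LPS 1 μg/ml, 24 h, RAW264.7 (DMEM/10% FBS); cpds at varied concs. Supernatant NO by Griess, A548; % inhibition vs blank medium.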

[9] = CCK-8, 48 hours after administration
[10] = human lung fibroblasts HFL1, CCK-8, 48 hours
[11] = human hepatic stellate cells LX-2, CCK-8, 48 hours
[12] = human fibrosarcoma cells HT-1080, CCK-8, 48 hours
[13] = human dermal fibroblasts CCC-ESF-1, CCK-8, 48 hours
[14] = human embryonic lung fibroblast IMR-90, CCK-8, 48 hours
[15] = cardiac fibroblast RAT-iCell-C002, CCK-8, 48 hours
[16] = Homo sapiens, CCC-ESF-1 cells, 48 h, CCK-8
[17] = Homo sapiens, IMR-90 cells, 48 h, CCK-8

IC50 [4, 12]	IC50 [8]	IC50 ([4]; HT-1080 cells, 48 h, CCK-8)	SMILES	IC50 [1, 9]	IC50 [2, 10]	IC50 [3, 11]	IC50 [5, 13]	IC50 [6, 14]	IC50 [7, 15]	IC50 ([1]; 48 h, CCK-8)	IC50 ([2]; HFL1 cells, 48 h, CCK-8)	IC50 ([3]; LX-2, 48 h, LX-2 cells, CCK-8)	IC50 [5, 16]	IC50 [6, 17]	IC50 ([7]; RAT-iCell-C002 cells, CCK-8)
0.05 to 5 mM	1 to 10 µM		O=C1c2c(nc3c(C(F)(F)F)cccc3c2OCc2cccc(Cl)c2)-c2cccn21 [Compound 455b, 9-((3-chlorobenzyl)oxy)-5-(trifluoromethyl)-10H-pyrrolizino[1,2-b]quinolin-10-one]	0.05 to 5 mM	5 to 20 mM	0.05 to 5 mM	0.05 to 5 mM	0.05 to 5 mM	0.05 to 5 mM						
0.05 to 5 mM	1 to 10 µM		N#Cc1cccc2c(OCc3ccccc3F)c3c(nc12)-c1cccn1C3=O [Compound 456b, 9-((2-fluorobenzyl)oxy)-10-oxo-10H-pyrrolizino[1,2-b]quinoline-5-carbonitrile]	0.05 to 5 mM	0.05 to 5 mM	0.05 to 5 mM	0.05 to 5 mM	0.05 to 5 mM	0.05 to 5 mM						
0.05 to 5 mM	1 to 10 µM		O=C1c2c(n(Cc3ccccc3Cl)c3c(Cl)cccc3c2=O)-c2cccn21 [Compound 461a, 5-Chloro-4-(2-chlorobenzyl)-9H-pyrrolizino[1,2-b]quinoline-9,10(4H)-dione]	< 0.05 mM	0.05 to 5 mM	< 0.05 mM	0.05 to 5 mM	0.05 to 5 mM	0.05 to 5 mM						
5 to 20 mM	1 to 10 µM		O=C1c2c(nc3c(C(F)(F)F)cccc3c2OCc2ccc(Cl)cc2)-c2cccn21 [Compound 450b, 9-((4-chlorobenzyl)oxy)-5-(trifluoromethyl)-10H-pyrrolizino[1,2-b]quinolin-10-one]	0.05 to 5 mM	0.05 to 5 mM	0.05 to 5 mM	0.05 to 5 mM	0.05 to 5 mM	0.05 to 5 mM						
0.05 to 5 mM	1 to 10 µM		O=C1c2c(nc3cc(N4CCNCC4)c(OC(F)(F)F)cc3c2O)-c2cccn21 [Compound 409b, 9-hydroxy-6-(piperazin-1-yl)-7-(trifluoromethoxy)-10H-pyrrolizino[1,2-b]quinolin-10-one]	0.05 to 5 mM	0.05 to 5 mM	0.05 to 5 mM	0.05 to 5 mM	0.05 to 5 mM	0.05 to 5 mM						
< 0.05 mM	1 to 10 µM		O=C1c2c(nc3cc(Cl)ccc3c2OCc2ccc(Cl)cc2)-c2cccn21 [Compound 508b, 6-chloro-9-((4-chlorobenzyl)oxy)-10H-pyrrolizino[1,2-b]quinolin-10-one]	0.05 to 5 mM	0.05 to 5 mM	0.05 to 5 mM	0.05 to 5 mM	0.05 to 5 mM	0.05 to 5 mM						
5 to 20 mM	1 to 10 µM		CC(C)Oc1c2c(nc3ccc(F)cc13)-c1cccn1C2=O [Compound 108b, 7-fluoro-9-isopropoxy-10H-pyrrolizino[1,2-b]quinolin-10-one]	0.05 to 5 mM	0.05 to 5 mM	0.05 to 5 mM	0.05 to 5 mM	0.05 to 5 mM	0.05 to 5 mM						
0.05 to 5 mM	1 to 10 µM		O=C1c2c(n(C3CC3)c3ccc(F)cc3c2=O)-c2cccn21 [Compound 144a, 4-Cyclopropyl-7-fluoro-9H-pyrrolizino[1,2-b]quinoline-9,10(4H)-dione]	0.05 to 5 mM	0.05 to 5 mM	< 0.05 mM	0.05 to 5 mM	0.05 to 5 mM	0.05 to 5 mM						
0.05 to 5 mM	1 to 10 µM		O=C1c2c(nc3cccc(F)c3c2OCc2ccc(Cl)cc2)-c2cccn21 [Compound 471b, 9-((4-chlorobenzyl)oxy)-8-fluoro-10H-pyrrolizino[1,2-b]quinolin-10-one]	0.05 to 5 mM	0.05 to 5 mM	0.05 to 5 mM	0.05 to 5 mM	0.05 to 5 mM	0.05 to 5 mM						
0.05 to 5 mM	1 to 10 µM		O=C1c2c(nc3ccc(F)cc3c2OC2CC2)-c2cccn21 [Compound 144b, 9-cyclopropoxy-7-fluoro-10H-pyrrolizino[1,2-b]quinolin-10-one]	0.05 to 5 mM	0.05 to 5 mM	< 0.05 mM	0.05 to 5 mM	0.05 to 5 mM	0.05 to 5 mM						
0.05 to 5 mM	1 to 10 µM		O=C1c2c(n(Cc3ccc(Cl)cc3)c3c(Cl)cccc3c2=O)-c2cccn21 [Compound 451a, 5-Chloro-4-(4-chlorobenzyl)-9H-pyrrolizino[1,2-b]quinoline-9,10(4H)-dione]	0.05 to 5 mM	< 0.05 mM	0.05 to 5 mM	0.05 to 5 mM	0.05 to 5 mM	0.05 to 5 mM						
0.05 to 5 mM	1 to 10 µM		O=C1c2c(n(Cc3ccc(F)cc3)c3c(F)cccc3c2=O)-c2cccn21 [Compound 452a, 5-Fluoro-4-(4-fluorobenzyl)-9H-pyrrolizino[1,2-b]quinoline-9,10(4H)-dione]	0.05 to 5 mM	0.05 to 5 mM	< 0.05 mM	0.05 to 5 mM	0.05 to 5 mM	0.05 to 5 mM						
	1 to 10 µM	0.05 to 5 mM	Cc1cccc2c(O)c3c(nc12)C(=O)n1cccc1-3 [Compound 779b, 11-hydroxy-7-methyl-5H-pyrrolizino[2,1-b]quinolin-5-one]							0.05 to 5 mM	0.05 to 5 mM	0.05 to 5 mM	0.05 to 5 mM	0.05 to 5 mM	0.05 to 5 mM
0.05 to 5 mM	1 to 10 µM		O=C1c2c(nc3cc(N4CCNCC4)c(F)cc3c2OC2CC2)-c2cccn21 [Compound 340b, 9-cyclopropoxy-7-fluoro-6-(piperazin-1-yl)-10H-pyrrolizino[1,2-b]quinolin-10-one]	0.05 to 5 mM	0.05 to 5 mM	0.05 to 5 mM	0.05 to 5 mM	0.05 to 5 mM	0.05 to 5 mM						
0.05 to 5 mM	1 to 10 µM		N#Cc1cccc2c(=O)c3c(n(Cc4ccccc4F)c12)-c1cccn1C3=O [Compound 456a, 4-(2-Fluorobenzyl)-9,10-dioxo-4,10-dihydro-9H-pyrrolizino[1,2-b]quinoline-5-carbonitrile]	0.05 to 5 mM	0.05 to 5 mM	< 0.05 mM	0.05 to 5 mM	0.05 to 5 mM	0.05 to 5 mM						
	1 to 10 µM	0.05 to 5 mM	CCOCCCn1c2c(c(=O)c3ccccc31)-c1cccn1C2=O [Compound 791a, 6-(3-Ethoxypropyl)-5H-pyrrolizino[2,1-b]quinoline-5,11(6H)-dione]							< 0.05 mM	0.05 to 5 mM	0.05 to 5 mM	0.05 to 5 mM	0.05 to 5 mM	0.05 to 5 mM
0.05 to 5 mM	0.1 to 1 µM		O=C1c2c(n(Cc3cccc(Cl)c3)c3cc(F)ccc3c2=O)-c2cccn21 [Compound 497a, 4-(3-Chlorobenzyl)-6-fluoro-9H-pyrrolizino[1,2-b]quinoline-9,10(4H)-dione]	0.05 to 5 mM	0.05 to 5 mM	0.05 to 5 mM	0.05 to 5 mM	0.05 to 5 mM	< 0.05 mM						

SMILES	IC50 [4, 12]	IC50 [8]	IC50 ([4]; HT-1080 cells, 48 h, CCK-8)	IC50 [1, 9]	IC50 [2, 10]	IC50 [3, 11]	IC50 [5, 13]	IC50 [6, 14]	IC50 [7, 15]	IC50 ([1]; 48 h, CCK-8)	IC50 ([2]; HFL1 cells, 48 h, CCK-8)	IC50 ([3]; LX-2, 48 h, LX-2 cells, CCK-8)	IC50 [5, 16]	IC50 [6, 17]	IC50 ([7]; RAT-iCell-C002 cells, CCK-8)
O=C1c2nc3ccccc3c(OCCCCN3CCNCC3)c2-c2cccn21 [Compound 794b, 11-(4-(piperazin-1-yl)butoxy)-5H-pyrrolizino[2,1-b]quinolin-5-one]		1 to 10 µM	0.05 to 5 mM							0.05 to 5 mM	0.05 to 5 mM	0.05 to 5 mM	0.05 to 5 mM	0.05 to 5 mM	0.05 to 5 mM
